Tests used:
[1] = Formation of 1,5-cz-[M(Lig)] from Lig and M^II ions (metal dependent click-zip) (Charts 6, 7); type: physicochemical; details: MOPS/NaOH buffer pH 7.0; for conversion to 1,5-cz-[M(Lig)], Ca^II / conversion to 1,5-cz-[M(Lig)], Cd^II: TD728 in 50% i-PrOH
[2] = Formation of 1,5-cz-[M(Lig)] from Lig and M^III ions (metal dependent click-zip) (Charts 4, 5); type: physicochemical; details: MOPS/NaOH buffer pH 7.0, TD728, TD827 in 50% i-PrOH; for conversion to 1,5-cz-[M(Lig)], Y^III: TD714 sum of two diastereoisomers
[3] = Alkali metal dependent formation of 1,5-cz-Lig and 1,4-cz-Lig isomers from Lig at pH 10.2 (Chart 14); type: physicochemical; details: B: 1 day at 80° C., Borate/(M^I)2CO3 buffer pH 10.2
[4] = Formation of 1,5-cz-[Ln(Lig)] from Lig and Ln^III ions (metal dependent click-zip), MOPS/NaOH buffer pH 7.0, analytical HPLC (Charts 1, 2); details: MOPS/NaOH buffer pH 7.0
[5] = 1 hour at 80° C., TD714 sum of two diastereoisomers
[6] = visible analyte free precipitate

## C#Cc1cccc(CN2CCN(CC(=O)O)CCN(Cc3cccc(CN=[N+]=[N-])n3)CCN(CP(=O)(O)O)CC2)n1 [TD714]
[1]; 1 week at 80° C.
  conversion to 1,5-cz-[M(Lig)], Ba^II: 0%
  conversion to 1,5-cz-[M(Lig)], Sr^II: 0%
  conversion to 1,5-cz-[M(Lig)], Ca^II: 6%
  conversion to 1,5-cz-[M(Lig)], Cd^II: 92%
[1]; 1 hour at 80° C.
  conversion to 1,5-cz-[M(Lig)], Ba^II: 0%
  conversion to 1,5-cz-[M(Lig)], Sr^II: 0%
  conversion to 1,5-cz-[M(Lig)], Ca^II: 0%
[1]; [5]
  conversion to 1,5-cz-[M(Lig)], Cd^II: 89%
[2]; 1 week at 80° C.
  conversion to 1,5-cz-[M(Lig)], Y^III: 89%
[2]; 1 hour at 80° C.
  conversion to 1,5-cz-[M(Lig)], Y^III: 22%
[3]
  conversion to 1,4-cz-Lig isomer, Cs^I: 44%
  conversion to 1,4-cz-Lig isomer, K^I: 46%
  conversion to 1,4-cz-Lig isomer, Na^I: 7%
  conversion to 1,4-cz-Lig isomer, Rb^I: 45%
  conversion to 1,5-cz-Lig isomer, Cs^I: 9%
  conversion to 1,5-cz-Lig isomer, K^I: 10%
  conversion to 1,5-cz-Lig isomer, Na^I: 81%
  conversion to 1,5-cz-Lig isomer, Rb^I: 9%
[3]; [6]
  conversion to 1,4-cz-Lig isomer, Li^I: 12%
  conversion to 1,5-cz-Lig isomer, Li^I: 15%
[4]; after 1 week at 80° C.
  conversion to 1,5-cz-[Ln(Lig)], Ce^III: 40%
  conversion to 1,5-cz-[Ln(Lig)], Dy^III: 91%
  conversion to 1,5-cz-[Ln(Lig)], Er^III: 93%
  conversion to 1,5-cz-[Ln(Lig)], Eu^III: 85%
  conversion to 1,5-cz-[Ln(Lig)], Gd^III: 85%
  conversion to 1,5-cz-[Ln(Lig)], Ho^III: 93%
  conversion to 1,5-cz-[Ln(Lig)], La^III: 4%
  conversion to 1,5-cz-[Ln(Lig)], Lu^III: 93%
  conversion to 1,5-cz-[Ln(Lig)], Nd^III: 73%
  conversion to 1,5-cz-[Ln(Lig)], Pr^III: 80%
  conversion to 1,5-cz-[Ln(Lig)], Sm^III: 82%
  conversion to 1,5-cz-[Ln(Lig)], Tb^III: 92%
  conversion to 1,5-cz-[Ln(Lig)], Tm^III: 94%
  conversion to 1,5-cz-[Ln(Lig)], Yb^III: 93%
[4]; after 1 hour at 80° C.
  conversion to 1,5-cz-[Ln(Lig)], Ce^III: 1%
  conversion to 1,5-cz-[Ln(Lig)], Dy^III: 23%
  conversion to 1,5-cz-[Ln(Lig)], Er^III: 34%
  conversion to 1,5-cz-[Ln(Lig)], Eu^III: 7%
  conversion to 1,5-cz-[Ln(Lig)], Gd^III: 9%
  conversion to 1,5-cz-[Ln(Lig)], Ho^III: 26%
  conversion to 1,5-cz-[Ln(Lig)], La^III: 0%
  conversion to 1,5-cz-[Ln(Lig)], Lu^III: 37%
  conversion to 1,5-cz-[Ln(Lig)], Nd^III: 3%
  conversion to 1,5-cz-[Ln(Lig)], Pr^III: 2%
  conversion to 1,5-cz-[Ln(Lig)], Sm^III: 5%
  conversion to 1,5-cz-[Ln(Lig)], Tb^III: 17%
  conversion to 1,5-cz-[Ln(Lig)], Tm^III: 40%
  conversion to 1,5-cz-[Ln(Lig)], Yb^III: 40%

## CC(C)(C)C#Cc1cccc(CN2CCN(CC(=O)O)CCN(Cc3cccc(CN=[N+]=[N-])n3)CCN(CC(=O)O)CC2)n1 [TD959]
[1]; 1 week at 80° C.
  conversion to 1,5-cz-[M(Lig)], Ca^II: 83%
  conversion to 1,5-cz-[M(Lig)], Cd^II: 96%
[1]; 1 hour at 80° C.
  conversion to 1,5-cz-[M(Lig)], Ca^II: 1%
[1]; [5]
  conversion to 1,5-cz-[M(Lig)], Cd^II: 2%
[2]; 1 week at 80° C.
  conversion to 1,5-cz-[M(Lig)], Sc^III: 1%
  conversion to 1,5-cz-[M(Lig)], Y^III: 82%
[2]; 1 hour at 80° C.
  conversion to 1,5-cz-[M(Lig)], Sc^III: 0%
  conversion to 1,5-cz-[M(Lig)], Y^III: 1%
[4]; after 1 week at 80° C.
  conversion to 1,5-cz-[Ln(Lig)], Ce^III: 11%
  conversion to 1,5-cz-[Ln(Lig)], Dy^III: 76%
  conversion to 1,5-cz-[Ln(Lig)], Er^III: 93%
  conversion to 1,5-cz-[Ln(Lig)], Eu^III: 51%
  conversion to 1,5-cz-[Ln(Lig)], Gd^III: 54%
  conversion to 1,5-cz-[Ln(Lig)], Ho^III: 84%
  conversion to 1,5-cz-[Ln(Lig)], La^III: 18%
  conversion to 1,5-cz-[Ln(Lig)], Lu^III: 99%
  conversion to 1,5-cz-[Ln(Lig)], Nd^III: 34%
  conversion to 1,5-cz-[Ln(Lig)], Pr^III: 27%
  conversion to 1,5-cz-[Ln(Lig)], Sm^III: 48%
  conversion to 1,5-cz-[Ln(Lig)], Tb^III: 68%
  conversion to 1,5-cz-[Ln(Lig)], Tm^III: 97%
  conversion to 1,5-cz-[Ln(Lig)], Yb^III: 98%
[4]; after 1 hour at 80° C.
  conversion to 1,5-cz-[Ln(Lig)], Ce^III: 0%
  conversion to 1,5-cz-[Ln(Lig)], Dy^III: 1%
  conversion to 1,5-cz-[Ln(Lig)], Er^III: 3%
  conversion to 1,5-cz-[Ln(Lig)], Eu^III: 1%
  conversion to 1,5-cz-[Ln(Lig)], Gd^III: 1%
  conversion to 1,5-cz-[Ln(Lig)], Ho^III: 2%
  conversion to 1,5-cz-[Ln(Lig)], La^III: 0%
  conversion to 1,5-cz-[Ln(Lig)], Lu^III: 6%
  conversion to 1,5-cz-[Ln(Lig)], Nd^III: 0%
  conversion to 1,5-cz-[Ln(Lig)], Pr^III: 0%
  conversion to 1,5-cz-[Ln(Lig)], Sm^III: 1%
  conversion to 1,5-cz-[Ln(Lig)], Tb^III: 1%
  conversion to 1,5-cz-[Ln(Lig)], Tm^III: 4%
  conversion to 1,5-cz-[Ln(Lig)], Yb^III: 5%

Source: patent US20250147039A1, “Compounds for complexation of rare earth elements and/or s-, p-, d- block metals, their coordination compounds, peptide conjugates, method of their preparation and use thereof” (USTAV ORGANICKE CHEMIE A BIOCHEMIE AV CR V.V.I., priority 2021, published 2025)
